From patent publication US20230091225A1, “Bifunctional chimeric heterocyclic compounds for targeted degradation of androgen receptors and use thereof” (HINOVA PHARMACEUTICALS INC., priority 2019, published 2023)
Read-outs that look alike come from different tables or passages of the source.

Molecular target: T1, androgen receptor (AR) (Homo sapiens, UniProt P10275)
T1 sequence (P10275 1-920): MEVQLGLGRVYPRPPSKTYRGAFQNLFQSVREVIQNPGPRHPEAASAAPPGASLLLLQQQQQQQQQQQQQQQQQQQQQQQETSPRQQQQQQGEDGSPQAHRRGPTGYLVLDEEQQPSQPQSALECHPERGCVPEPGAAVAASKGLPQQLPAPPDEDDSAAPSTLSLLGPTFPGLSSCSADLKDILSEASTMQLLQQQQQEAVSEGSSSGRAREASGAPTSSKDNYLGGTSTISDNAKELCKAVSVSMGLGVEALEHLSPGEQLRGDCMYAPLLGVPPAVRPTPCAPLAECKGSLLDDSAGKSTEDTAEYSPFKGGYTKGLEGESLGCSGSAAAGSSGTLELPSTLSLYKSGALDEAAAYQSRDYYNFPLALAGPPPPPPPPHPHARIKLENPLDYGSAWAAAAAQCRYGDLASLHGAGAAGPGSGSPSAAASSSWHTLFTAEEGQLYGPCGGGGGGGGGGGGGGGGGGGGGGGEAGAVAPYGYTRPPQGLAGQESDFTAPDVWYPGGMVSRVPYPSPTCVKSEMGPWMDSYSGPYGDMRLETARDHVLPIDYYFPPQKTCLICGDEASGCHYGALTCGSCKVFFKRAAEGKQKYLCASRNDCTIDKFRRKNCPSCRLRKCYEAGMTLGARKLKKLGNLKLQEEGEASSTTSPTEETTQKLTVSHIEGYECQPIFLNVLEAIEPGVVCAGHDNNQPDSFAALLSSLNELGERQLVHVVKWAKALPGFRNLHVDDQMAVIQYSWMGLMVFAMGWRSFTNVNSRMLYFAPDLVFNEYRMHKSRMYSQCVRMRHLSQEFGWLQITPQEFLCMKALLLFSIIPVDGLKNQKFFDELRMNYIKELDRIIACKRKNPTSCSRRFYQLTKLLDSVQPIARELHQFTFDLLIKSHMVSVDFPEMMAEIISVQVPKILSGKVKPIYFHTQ
Assay: Degradation of androgen receptor (AR) protein in VCaP cells by ELISA
Format: cell-based
Settings: for DC50: read-out: DC50; for Dmax: VCaP; for inhibition at 0.1 µM: percentage of degraded AR at 100 nM, read-out: % degradation

[1] = AR degradation, VCaP cells, 16 h, ELISA, Table 3-1
[2] = AR degradation, VCaP cells, 16 h, ELISA, Table 3-1, read-out: Dmax (%)

Compound	DC50 [1] [nM]	Dmax [2] [%]	other results
4-((1r,3r)-3-(2-((1r,4r)-4-(4-(2,6-dioxopiperidin-3-yl)-1,3-dioxoisoindolin-5-yl)piperazin-1-2-methoxybenzonitrile [Compound 400]			Dmax (%): ++++ (key: A: >80%; B: 79%-50%; C: 49%-25%; D: <25%); DC50: < 10 nM
CC1(C)[C@H](Oc2ccc(C#N)c(Cl)c2)C(C)(C)[C@H]1N1Cc2nc(C#CC3CCC(N4CC5CC4CN5c4ccc5c(c4)C(=O)N(C4CCC(=O)NC4=O)C5=O)CC3)ccc2C1=O (single isomer, unassigned) [Compound 352, 2-Chloro-4-((1r,3r)-3-(2-((4-(5-(2-(2,6-dioxopiperidin-3-yl)-1,3-dioxoisoindolin-5-yl)-2,5-diazabicyclo[2.2.1]heptan-2-yl)cyclohexyl)ethynyl)-5-oxo-5,7-dihydro-6H-pyrrolo[3,4-b]pyridin-6-yl)-2,2,4,4-tetramethylcyclobutoxy) benzonitrile]	> 300	40 to 60	
CC1(C)[C@H](Oc2ccc(C#N)c(Cl)c2)C(C)(C)[C@H]1N1Cc2nc(C#CC3CCC(N4CC5CC4CN5c4ccc5c(c4)C(=O)N(C4CCC(=O)NC4=O)C5=O)CC3)ccc2C1=O (single isomer, unassigned) [Compound 353, 2-Chloro-4-((1r,3r)-3-(2-((4-(5-(2-(2,6-dioxopiperidin-3-yl)-1,3-dioxoisoindolin-5-yl)-2,5-diazabicyclo[2.2.1]heptan-2-yl)cyclohexyl)ethynyl)-5-oxo-5,7-dihydro-6H-pyrrolo[3,4-b]pyridin-6-yl)-2,2,4,4-tetramethylcyclobutoxy) benzonitrile]	> 300		
CC(=O)O[C@@H]1CC(C(=O)N[C@@H](C)c2ccc(-c3scnc3C)cc2)N(C(=O)[C@@H](NC(=O)COCCN2CCN(c3ccc4c(c3)CN([C@H]3C(C)(C)[C@H](Oc5ccc(C#N)c(Cl)c5)C3(C)C)C4=O)CC2)C(C)(C)C)C1 (stereo partly drawn) [Compound 2, (3R,5S)-1-((S)-2-(2-(2-(4-(2-((1R,3R)-3-(3-chloro-4-cyanophenoxy)-2,2,4,4-tetramethylcyclobutyl)-1-oxoisoindolin-5-yl)piperazin-1-yl)ethoxy)acetylamino)-3,3-dimethylbutyryl)-5-(((S)-1-(4-(4-methylthiazol-5-yl)phenyl)ethyl)carbamoyl) pyrrolidin-3-yl acetate]			inhibition at 0.1 µM (VCaP cells, 16 h, ELISA): < 25%
CC(=O)O[C@@H]1C[C@H](C(=O)NC2(c3ccc(-c4scnc4C)cc3)CC2)N(C(=O)[C@@H](NC(=O)COCCCCC#Cc2ccc(C(=O)N[C@H]3C(C)(C)[C@H](Oc4ccc(C#N)c(Br)c4)C3(C)C)cc2)C(C)(C)C)C1 [Compound 8, (3R,5R)-1-((S)-2-(2-((6-(4-(((1R,3R)-3-(3-bromo-4-cyanophenoxy)-2,2,4,4-tetramethylcyclobutyl)carbamoyl)phenyl)hex-5-yn-1-yl)oxy)acetylamino)-3,3-dimethylbutyryl)-5-((1-(4-(4-methylthiazol-5-yl)phenyl)cyclopropyl)carbamoyl) pyrrolidin-3-yl acetate]			inhibition at 0.1 µM (VCaP cells, 16 h, ELISA): 25 to 49%
Cc1ncsc1-c1ccc([C@H](C)NC(=O)[C@@H]2C[C@@H](O)CN2C(=O)[C@@H](NC(=O)COCCCCC#Cc2ccc3c(n2)CN([C@H]2C(C)(C)[C@H](Oc4ccc(C#N)c(Cl)c4)C2(C)C)C3=O)C(C)(C)C)cc1 [Compound 36, (2S,4R)-1-((S)-2-(2-((6-(6-((1r,3r)-3-(3-chloro-4-cyanophenoxy)-2,2,4,4-tetramethylcyclobutyl)-5-oxo-6,7-dihydro-5H-pyrrolo[3,4-b]pyridin-2-yl)hex-5-yn-1-yl)oxy)acetylamino)-3,3-dimethylbutyryl)-4-hydroxy-N-((S)-1-(4-(4-methylthiazol-5-yl)phenyl)ethyl)pyrrolidine-2-carboxamide]			inhibition at 0.1 µM (VCaP cells, 16 h, ELISA): 25 to 49%
N#Cc1ccc(O[C@H]2CC[C@H](NC(=O)c3ccc(N4CCC5(CC4)CN(CC4CCN(c6cc7c(cc6F)C(=O)N(C6CCC(=O)NC6=O)C7=O)CC4)C5)nn3)CC2)cc1Cl (stereo partly drawn) [Compound 75]	< 10	> 80	
N#Cc1ccc(O[C@H]2CC[C@H](NC(=O)c3cnc(N4CCC5(CC4)CN(CC4CCN(c6cc7c(cc6F)C(=O)N(C6CCC(=O)NC6=O)C7=O)CC4)C5)cn3)CC2)cc1Cl (stereo partly drawn) [Compound 76]	< 10	> 80	
N#Cc1ccc(O[C@H]2CC[C@H](NC(=O)c3ccc(N4CCC(N5CC6(CCN(c7cc8c(cc7F)C(=O)N(C7CCC(=O)NC7=O)C8=O)CC6)C5)CC4)nc3)CC2)cc1Cl (stereo partly drawn) [Compound 77, N-((1r,4r)-4-(3-chloro-4-cyanophenoxy)cyclohexyl)-6-(4-(7-(2-(2,6-dioxopiperidin-3-yl)-6-fluoro-1,3-dioxoisoindolin-5-yl)-2,7-diazaspiro[3.5]nonan-2-yl)piperidin-1-yl)nicotinamide]	< 10	> 80	
N#Cc1ccc(O[C@H]2CC[C@H](NC(=O)c3ccc(N4CCC(N5CC6(CCN(c7ccc8c(c7)C(=O)N(C7CCC(=O)NC7=O)C8=O)CC6)C5)CC4)nn3)CC2)cc1Cl (stereo partly drawn) [Compound 78]	< 10	> 80	
N#Cc1ccc(O[C@H]2CC[C@H](NC(=O)c3ccc(N4CCC(N5CC6(CCN(c7cc8c(cc7F)C(=O)N(C7CCC(=O)NC7=O)C8=O)CC6)C5)CC4)nn3)CC2)cc1C(F)(F)F (stereo partly drawn) [Compound 79, N-((1r,4r)-4-(4-cyano-3-(trifluoromethyl)phenoxy)cyclohexyl)-6-(4-(7-(2-(2,6-dioxopiperidin-3-yl)-6-fluoro-1,3-dioxoisoindolin-5-yl)-2,7-diazaspiro[3.5]nonan-2-yl)piperidin-1-yl)pyridazine-3-formamide]	10 to 100	> 80	
CC1(C)C(NC(=O)c2ccc(N3CCC(N4CC5(CCN(c6cc7c(cc6F)C(=O)N(C6CCC(=O)NC6=O)C7=O)CC5)C4)CC3)nn2)C(C)(C)C1Oc1ccc(C#N)c(Cl)c1 (stereo not drawn) [Compound 80, N-((1s,3s)-3-(3-chloro-4-cyanophenoxy)-2,2,4,4-tetramethylcyclobutyl)-6-(4-(7-(2-(2,6-dioxopiperidin-3-yl)-6-fluoro-1,3-dioxoisoindolin-5-yl)-2,7-diazaspiro [3.5]nonan-2-yl)piperidin-1-yl)pyridazine-3-formamide]			Dmax (%): +++ (key: ++++: >80%; +++: 80%-60%; ++: 60%-40%; +: <40%); DC50: 10 to 100 nM
N#Cc1ccc(O[C@H]2CC[C@H](NC(=O)c3ccc(N4CC5(CCN(C6CCN(c7cc8c(cc7F)C(=O)N(C7CCC(=O)NC7=O)C8=O)CC6)C5)C4)nn3)CC2)cc1Cl (stereo partly drawn) [Compound 81, N-((1r,4r)-4-(3-chloro-4-cyanophenoxy)cyclohexyl)-6-(6-(1-(2-(2,6-dioxopiperidin-3-yl)-6-fluoro-1,3-dioxoisoindolin-5-yl)piperidine-4-yl)-2,6-diazaspiro[3.4]octan-2-yl)pyridazine-3-formamide]	< 10		Dmax: > 80%
N#Cc1ccc(O[C@H]2CC[C@H](NC(=O)c3cnc(N4CC5(CCN(C6CCN(c7cc8c(cc7F)C(=O)N(C7CCC(=O)NC7=O)C8=O)CC6)C5)C4)cn3)CC2)cc1Cl (stereo partly drawn) [Compound 82, N-((1r,4r)-4-(3-chloro-4-cyanophenoxy)cyclohexyl)-5-(6-(1-(2-(2,6-dioxopiperidin-3-yl)-6-fluoro-1,3-dioxoisoindolin-5-yl)piperidine-4-yl)-2,6-diazaspiro [3.4]octane-2-yl)pyrazine-2-carboxamide]	< 10		Dmax: > 80%
N#Cc1ccc(O[C@H]2CC[C@H](NC(=O)c3nnc(N4CCC(N5CCC6(CC5)CN(c5cc7c(cc5F)C(=O)N(C5CCC(=O)NC5=O)C7=O)C6)CC4)s3)CC2)cc1Cl (stereo partly drawn) [Compound 83]	> 300		Dmax: < 40%
N#Cc1ccc(OC2CCC(NC(=O)c3ncn(C4CCC(CN5CCC6(CC5)CN(c5ccc7c(c5)C(=O)N(C5CCC(=O)NC5=O)C7=O)C6)CC4)n3)CC2)cc1Cl [Compound 84, N-((1r,4R)-4-(3-chloro-4-cyanophenoxy)cyclohexyl)-1-(1r,4R)-4-((2-(2-(2,6-dioxopiperidin-3-yl)-1,3-dioxoisoindolin-5-yl)-2,7-diazaspiro[3.5]nonan-7-yl)methyl)cyclohexyl)-1H-1,2,4-triazole-3-carboxamide]	< 10		Dmax (%) [1]: ++++ (>80%)
N#Cc1ccc(OC2CCC(NC(=O)c3ncn(C4CCC(CN5CCC6(CC5)CN(c5cc7c(cc5F)C(=O)N(C5CCC(=O)NC5=O)C7=O)C6)CC4)n3)CC2)cc1Cl [Compound 85, N-((1r,4R)-4-(3-chloro-4-cyanophenoxy)cyclohexyl)-1-((1r,4R)-4-((2-(2,6-dioxopiperidin-3-yl)-6-fluoro-1,3-dioxoisoindolin-5-yl)-2,7-diazaspiro[3.5]nonan-7-yl)methyl)cyclohexyl)-1H-1,2,4-triazole-3-formamide]	10 to 100		Dmax (%) [1]: ++++ (>80%)
